Source: ChEMBL document CHEMBL1201862, “PubChem BioAssay data set” (2004)
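Compound exposure: 48 hours, 5 concentrations, 96-well plates. GI50 = concentration required for 50% inhibition of growth.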 Active and inactive are the calls of the source. Cut-off read from the data, not from the text of the source: active = GI50 up to about 1.1 µM and inactive = higher.

Experiments:
Test in all cases: growth of human tumour cells (NCI), 48 h
HT-29 = tested on: HT-29
KM12 = tested on: KM12
A549 = tested on: A549
SR = tested on: SR
SF-295 = tested on: SF-295
OVCAR-5 = tested on: OVCAR-5
HOP-92 = tested on: HOP-92
HCC 2998 = tested on: HCC 2998
COLO 205 = tested on: COLO 205
OVCAR-3 = tested on: OVCAR-3
SNB-75 = tested on: SNB-75
UACC-62 = tested on: UACC-62
CCRF-CEM = tested on: CCRF-CEM
UACC-257 = tested on: UACC-257
DMS-114 = tested on: DMS-114
SK-OV-3 = tested on: SK-OV-3
MOLT-4 = tested on: MOLT-4
U-251 = tested on: U-251
SK-MEL-2 = tested on: SK-MEL-2
Hs-578T = tested on: Hs-578T

Measured: GI50

O=C(O)C1=C(C(=O)Nc2ccccc2)C2C=CC1C2 (stereo unspecified)
inactive: HT-29 > 100 µM | KM12 > 100 µM | A549 > 100 µM | SR > 100 µM | SF-295 > 100 µM | OVCAR-5 > 100 µM | HOP-92 > 100 µM | HCC 2998 > 100 µM | COLO 205 > 100 µM | OVCAR-3 > 100 µM | SNB-75 > 100 µM | UACC-62 > 100 µM | CCRF-CEM > 100 µM | UACC-257 > 100 µM | DMS-114 > 100 µM | SK-OV-3 > 100 µM | MOLT-4 > 100 µM | U-251 > 100 µM

COc1cc2cc3c4c(cc(OC)c(OC)c4c2cc1OC)CCN3C(=O)N(C)C
inactive: HT-29 83.4 µM | KM12 > 100 µM | A549 > 100 µM | SR > 100 µM | SF-295 37.8 µM | OVCAR-5 > 100 µM | HOP-92 91 µM | HCC 2998 > 100 µM | COLO 205 > 100 µM | OVCAR-3 > 100 µM | SNB-75 19.5 µM | UACC-62 > 100 µM | CCRF-CEM 96.6 µM | UACC-257 > 100 µM | DMS-114 > 100 µM | SK-OV-3 > 100 µM | MOLT-4 > 100 µM | SK-MEL-2 > 100 µM | U-251 > 100 µM

OC1(c2ccccc2)OC(C#Cc2ccccc2)(c2ccccc2)c2ccccc21 (stereo unspecified)
inactive: HT-29 2.02 µM | KM12 1.59 µM | A549 3.86 µM | SR 2.5 µM | SF-295 5.57 µM | OVCAR-5 2.79 µM | HOP-92 4 µM | COLO 205 2.31 µM | OVCAR-3 2.31 µM | SNB-75 6.1 µM | UACC-62 1.94 µM | CCRF-CEM 2.73 µM | UACC-257 8.32 µM | DMS-114 3.13 µM | SK-OV-3 1.46 µM | MOLT-4 2.08 µM | U-251 4.12 µM

O=C1C(O)=C(CCCc2ccc(Oc3ccccc3)cc2)C(=O)c2ccccc21
inactive: HT-29 30.9 µM | KM12 15.1 µM | SR 15.2 µM | SF-295 7.78 µM | OVCAR-5 41.1 µM | HOP-92 12.9 µM | HCC 2998 25.7 µM | COLO 205 17.7 µM | OVCAR-3 6.53 µM | SNB-75 24.4 µM | UACC-62 3.94 µM | CCRF-CEM 18.1 µM | UACC-257 4.32 µM | DMS-114 4.73 µM | SK-OV-3 51.4 µM | MOLT-4 4.19 µM | SK-MEL-2 10.2 µM | U-251 5.64 µM

Cc1cccc(C)c1NC(=O)C(C#N)C1=C(Cl)C(=O)c2ccccc2C1=O (stereo unspecified)
inactive: HT-29 18.6 µM | KM12 16.8 µM | A549 19.7 µM | SR 2.31 µM | SF-295 16.3 µM | OVCAR-5 19.3 µM | HOP-92 10.2 µM | HCC 2998 17.8 µM | COLO 205 6.35 µM | Hs-578T 12.1 µM | OVCAR-3 11.3 µM | SNB-75 15.7 µM | UACC-62 16.1 µM | CCRF-CEM 1.62 µM | UACC-257 13.9 µM | DMS-114 15.3 µM | SK-OV-3 20.9 µM | MOLT-4 1.93 µM | SK-MEL-2 14.4 µM | U-251 18.1 µM

O=C(CC(=O)c1ccccc1)C(=O)Nc1ccc(Cl)cc1
inactive: HT-29 > 42.8 µM | KM12 > 100 µM | A549 > 94.6 µM | SR > 100 µM | SF-295 > 100 µM | OVCAR-5 > 100 µM | HOP-92 > 100 µM | HCC 2998 > 64.3 µM | COLO 205 > 46.2 µM | OVCAR-3 > 100 µM | SNB-75 > 64 µM | UACC-62 > 100 µM | CCRF-CEM > 100 µM | UACC-257 > 61.5 µM | DMS-114 > 40.4 µM | SK-OV-3 > 100 µM | MOLT-4 > 100 µM | SK-MEL-2 > 100 µM | U-251 > 100 µM

CC(C)(C)c1cc(CCC(=O)Nc2ccc(Cl)cc2Cl)nc(N)n1
inactive: HT-29 > 100 µM | KM12 > 100 µM | A549 > 100 µM | SR > 100 µM | SF-295 > 100 µM | OVCAR-5 > 100 µM | HOP-92 91.6 µM | HCC 2998 > 100 µM | COLO 205 > 100 µM | OVCAR-3 > 100 µM | UACC-62 > 100 µM | CCRF-CEM > 100 µM | UACC-257 > 100 µM | DMS-114 > 100 µM | SK-OV-3 > 100 µM | MOLT-4 > 100 µM | SK-MEL-2 > 100 µM | U-251 > 100 µM

O=C1CNS(=O)(=O)N1
inactive: HT-29 > 100 µM | KM12 > 100 µM | A549 > 100 µM | SR > 100 µM | SF-295 > 100 µM | HOP-92 > 100 µM | HCC 2998 > 100 µM | COLO 205 > 100 µM | OVCAR-3 > 100 µM | SNB-75 > 100 µM | UACC-62 > 100 µM | CCRF-CEM > 100 µM | UACC-257 > 100 µM | DMS-114 > 100 µM | SK-OV-3 > 100 µM | MOLT-4 > 100 µM | SK-MEL-2 > 100 µM
